We go through twelve molecules from article PMC7397274, “Triazolopyridopyrimidine: A New Scaffold for Dual-Target Small Molecules for Alzheimer’s Disease Therapy” (Molecules, 2020).

The structures appear in SMILES notation. Where “and” joins values, the source holds several entries; their conditions need not be identical. Equal entries are not always repeated. Where two headings read alike, the source gives them in different places.

As a reminder, the inhibition is the relative decrease from the control value, in per cent. A low value points to a weak effect. Broadly, the IC50 is the concentration that gives 50% inhibition.

The conditions of experiment [1]: ORAC-FL; for ORAC (TE): fluorescein probe, Trolox standard, mean (n = 3) ± SEM; for antioxidant activity (ORAC) in words: qualitative statement or comparison with positive controls.
Method: The ability of triazolopyridopyrimidines 3a–k to reduce the amount of peroxyl radicals was determined by the oxygen radical absorbance capacity by fluorescence (ORAC-FL) method [26, 27] using fluorescein (FL) as the fluorescent probe, and 6-hydroxy-2,5,7,8-tetramethyl-chroman-2-carboxylic acid (Trolox) as standard compound. Results were expressed as μmol Trolox equivalents (TE).
Briefly, fluorescein and antioxidant were incubated in a black 96-well microplate (Nunc) for 15 min at 37 °C. 2,2′-Azobis(amidinopropane) dihydrochloride was then added quickly using the built-in injector of Varioskan Flash plate reader (Thermo Scientific). The fluorescence was measured at 485 nm (excitation wavelength) and 535 nm (emission wavelength) each min for 1 h. All the reactions were made in triplicate and at least three different assays were performed for each sample.
The next experiment has as its target T1, EeAChE (Electrophorus electricus, UniProt O42275).
T1 construct: purchased Sigma Aldrich
In words: biochemical. The experiment is classed as biochemical. As to conditions: for inhibition at 10 µM: 10 μM compound; for inhibition at 10 µM / IC50: Ellman method; for IC50: mean ± SEM; for fold less active than tacrine (EeAChE IC50): relative to tacrine IC50 = 0.03 μM. The procedure: The effect of the test compounds on the activity of both EeAChE and eqBuChE was evaluated following the spectrophotometric method of Ellman. The reaction occurred in a final volume of 3 mL of a 0.1 M phosphate-buffered solution at pH = 8.0, containing 5,5′-dithiobis-2-nitrobenzoic acid (DTNB, 2625 µL, 0.35 mM, final concentration), EeAChE (29 µL, 0.035 U/mL, final concentration) or eqBuChE (60 µL, 0.05 U/mL, final concentration), tested compound (3 µL, […]), and 1% w/v bovine albumin serum phosphate-buffered (pH = 8) solution (BSA, 60 µL). After this pre-incubation period, acetylthiocholine iodide (105 µL, 0.35 mM, final concentration) or butyrylthiocholine iodide (150 µL, 0.5 mM, final concentration) was added, allowing 15 min of additional incubation time.

T1 sequence (O42275 24-633): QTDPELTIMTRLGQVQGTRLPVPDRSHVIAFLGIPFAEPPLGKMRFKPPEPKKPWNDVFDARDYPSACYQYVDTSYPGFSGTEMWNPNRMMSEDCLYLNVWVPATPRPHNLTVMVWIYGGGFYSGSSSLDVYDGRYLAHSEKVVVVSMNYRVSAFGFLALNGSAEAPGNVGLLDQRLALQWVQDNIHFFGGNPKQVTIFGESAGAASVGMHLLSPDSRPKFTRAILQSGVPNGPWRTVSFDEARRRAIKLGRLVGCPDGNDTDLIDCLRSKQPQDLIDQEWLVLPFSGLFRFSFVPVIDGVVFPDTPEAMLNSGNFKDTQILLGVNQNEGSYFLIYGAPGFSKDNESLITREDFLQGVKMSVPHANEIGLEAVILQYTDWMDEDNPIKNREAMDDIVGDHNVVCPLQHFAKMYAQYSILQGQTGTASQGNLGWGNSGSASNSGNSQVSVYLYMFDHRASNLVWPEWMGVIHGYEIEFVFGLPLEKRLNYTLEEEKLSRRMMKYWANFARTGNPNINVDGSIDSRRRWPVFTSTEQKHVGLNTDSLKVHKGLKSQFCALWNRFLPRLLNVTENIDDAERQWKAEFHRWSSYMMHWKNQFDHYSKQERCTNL

Regarding `N#Cc1c(-c2ccccc2)c2c(N)ncnc2n2nc(-c3ccccc3)nc12` [Compound 3a, 6-Amino-2,5-diphenyl-[1,2,4]triazolo[1′,5′:1,6]pyrido[2,3-d] pyrimidine-4-carbonitrile], the “ORAC (TE)” value in experiment [1] was 1.85 ± 0.1 TE. At EeAChE, this molecule yielded an inhibition at 10 µM of 40.3 ± 2.4%.
With `Cc1ccc(-c2c(C#N)c3nc(-c4ccccc4)nn3c3ncnc(N)c23)cc1` [Compound 3b, 6-Amino-2-phenyl-5-(p-tolyl)-[1,2,4]triazolo[1′,5′:1,6]pyrido[2,3-d] pyrimidine-4-carbonitrile], the “ORAC (TE)” value in experiment [1] was 1.77 TE and 1.77 ± 0.1 TE. Also, on EeAChE, the inhibition at 10 µM is 73.13 ± 0.1%; the midpoint of inhibition, the IC50, lay at 1.17 µM; the “fold less active than tacrine (EeAChE IC50)” value was 39 fold.
As to `COc1ccc(-c2c(C#N)c3nc(-c4ccccc4)nn3c3ncnc(N)c23)cc1` [Compound 3c, 6-Amino-5-(4-methoxyphenyl)-2-phenyl-[1,2,4]triazolo[1′,5′:1,6]pyrido[2,3-d] pyrimidine-4-carbonitrile], the “ORAC (TE)” value in experiment [1] was 4.01 TE and 4.01 ± 0.1 TE. Further, on EeAChE, at 10 µM the inhibition was 63.9 ± 1.8%; the half-inhibitory concentration (IC50) is 1.3 µM and 1.32 µM; the “fold less active than tacrine (EeAChE IC50)” value came out at 44 fold.
Turning to `COc1cccc(-c2c(C#N)c3nc(-c4ccccc4)nn3c3ncnc(N)c23)c1` [Compound 3d, 6-Amino-5-(3-methoxyphenyl)-2-phenyl-[1,2,4]triazolo[1′,5′:1,6]pyrido[2,3-d] pyrimidine-4-carbonitrile], the “ORAC (TE)” value in experiment [1] was determined as 4.33 ± 0.1 TE. Further, on EeAChE, testing at 10 µM gave an inhibition of 31.2 ± 2.1%.
On the same counts, the results for `COc1ccccc1-c1c(C#N)c2nc(-c3ccccc3)nn2c2ncnc(N)c12` [Compound 3e, 6-Amino-5-(2-methoxyphenyl)-2-phenyl-[1,2,4]triazolo[1′,5′:1,6]pyrido[2,3-d] pyrimidine-4-carbonitrile] are 3.79 ± 0.1 TE and 32.3 ± 2.4%.
On the same counts, the results for `N#Cc1c(-c2ccc(Cl)cc2)c2c(N)ncnc2n2nc(-c3ccccc3)nc12` [Compound 3f, 6-Amino-5-(4-chlorophenyl)-2-phenyl-[1,2,4]triazolo[1′,5′:1,6]pyrido[2,3-d] pyrimidine-4-carbonitrile] are 1.81 ± 0.1 TE and 43.9 ± 1.2%.
In the case of `N#Cc1c(-c2ccc(O)cc2)c2c(N)ncnc2n2nc(-c3ccccc3)nc12` [Compound 3g, 6-Amino-5-(4-hydroxyphenyl)-2-phenyl-[1,2,4]triazolo[1′,5′:1,6]pyrido[2,3-d] pyrimidine-4-carbonitrile], in experiment [1], the “ORAC (TE)” value is 7.17 TE and 7.17 ± 0.2 TE; the “antioxidant activity (ORAC) in words” value is listed as “most potent antioxidant”. The same molecule displayed an inhibition at 10 µM on EeAChE of 36.4 ± 0.6%.
In the case of `N#Cc1c(-c2ccc([N+](=O)[O-])cc2)c2c(N)ncnc2n2nc(-c3ccccc3)nc12` [Compound 3h, 6-Amino-5-(4-nitrophenyl)-2-phenyl-[1,2,4]triazolo[1′,5′:1,6]pyrido[2,3-d] pyrimidine-4-carbonitrile], in experiment [1], the “ORAC (TE)” value is given as 3.54 ± 0.1 TE and the “antioxidant activity (ORAC) in words” value was “moderate antioxidants”. The molecule also gave an inhibition at 10 µM against EeAChE of 44.6 ± 1.6%.
For `CC(C)c1ccc(-c2c(C#N)c3nc(-c4ccccc4)nn3c3ncnc(N)c23)cc1` [Compound 3i, 6-Amino-5-(4-isopropylphenyl)-2-phenyl-[1,2,4]triazolo[1′,5′:1,6]pyrido[2,3-d] pyrimidine-4-carbonitrile], the “ORAC (TE)” value in experiment [1] is 1.89 ± 0.1 TE. At EeAChE, this molecule gave an inhibition at 10 µM of 18.2 ± 1%.
The corresponding values for `N#Cc1c(-c2ccc(Br)cc2)c2c(N)ncnc2n2nc(-c3ccccc3)nc12` [Compound 3j, 6-Amino-5-(4-bromophenyl)-2-phenyl-[1,2,4]triazolo[1′,5′:1,6]pyrido[2,3-d] pyrimidine-4-carbonitrile] are 2.57 ± 0.0 TE and 38.1 ± 1.1%.
As for `N#Cc1c(-c2ccc(Oc3ccccc3)cc2)c2c(N)ncnc2n2nc(-c3ccccc3)nc12` [Compound 3k, 6-Amino-5-(4-phenoxyphenyl)-2-phenyl-[1,2,4]triazolo[1′,5′:1,6]pyrido[2,3-d] pyrimidine-4-carbonitrile], in experiment [1], the “ORAC (TE)” value turned out to be 2.99 ± 0.2 TE and the “antioxidant activity (ORAC) in words” value is recorded as “weaker antioxidant activity”. Moreover, the inhibition at 10 µM on EeAChE was found to be 18.6 ± 1.8%.
As to `COc1cc(/C=C/C(=O)O)ccc1O` [Ferulic acid, reference compound], the “ORAC (TE)” value stood at 3.74 ± 0.2 TE in experiment [1] and 3.7 TE in experiment [1] (listed as ferulic acid).
